The values below come from patent publication US7858741B2, “Stabilization of the collagen triple helix by O-methylation of hydroxyproline residues” (Wisconsin Alumni Research Foundation, priority 2008, dated 2010).

Read-outs that look alike come from different tables or passages of the source. Marks after values point to notes of the source that are not given here.

For data set [1] the following is noted: cited from earlier work.
The conditions of data set [2]: cited from earlier work. This is another data set of the same source.
The nature of data set [3]: Crystal structure conformation (main-chain dihedral angles, n→π* geometry). The data set is classed as physicochemical. The following applies: crystalline Ac-Mop-OMe. The procedure:
[^13CH3]Ac-Mop-OMe (10 mg) was dissolved in 1:1 CH2Cl2/hexanes (1 mL) and the solution was allowed to stand at room temperature in a loosely-capped vial. Slow evaporation afforded crystals suitable for X-ray analysis after ˜72 h (all solvent had evaporated).
A colorless crystal with approximate dimensions 0.49×0.41×0.23 mm^3 was selected under oil under ambient conditions and attached to the tip of a nylon loop. The crystal was mounted in a stream of cold N2 (g) at 100(2) K and centered in the X-ray beam by using a video camera.
The crystal evaluation and data collection were performed on a Bruker CCD-1000 diffractometer with Mo Kα (λ=0.71073 Å) radiation and the diffractometer-to-crystal distance of 4.9 cm.
The initial cell constants were obtained from three series of scans at different starting angles. Each series consisted of 20 frames collected at intervals of 0.3° in a 6° range about ω with the exposure time of 10 s per frame. A total of 69 reflections were obtained. The reflections were indexed successfully by an automated indexing routine built in the SMART program. The final cell constants were calculated from a set of 4805 strong reflections from the actual data collection.
Data were collected by using the full-sphere data collection routine. The reciprocal space was surveyed to the extent of a full sphere to a resolution of 0.80 Å. A total of 6155 data were harvested by collecting three sets of frames with 0.3° scans in ω and ? with an exposure time 10 s per frame. These highly redundant datasets were corrected for Lorentz and polarization effects. The absorption correction was based on fitting a function to the empirical transmission surface as sampled by multiple equivalent measurements. (Bruker-AXS. (2000-2003) SADABS V.2.05, SAINT V.6.22, SHELXTL V.6.10 & SMART 5.622 Software Reference Manuals. Bruker-AXS, Madison, Wis., USA.)
The systematic absences in the diffraction data were consistent for the space groups P21 and P21/m.
A successful solution by the direct methods provided most non-hydrogen atoms from the E-map. The remaining non-hydrogen atoms were located in an alternating series of least-squares cycles and difference Fourier maps. All non-hydrogen atoms were refined with anisotropic displacement coefficients. All hydrogen atoms were found in the difference map and refined independently. The absolute configuration was assigned from the known synthetic procedure.
The final difference Fourier map was featureless. The molecular diagram is drawn with 50% probability ellipsoids as depicted in FIG. 2.

Data set [4] in a line: Thermal denaturation of collagen triple helices by circular dichroism (Tm). To be noted: for Tm, water / Tm, EG(aq): circular dichroism, peptide 200 μM; for Tm, water: 50 mM HOAc (pH 3.0); for Tm, EG(aq): 2:1 EG/50 mM HOAc (pH 3.0). The data set is classed as physicochemical. The protocol:
CD spectra were recorded with an Aviv 202SF circular dichroism spectrometer. Spectra were recorded on peptide solutions (100 μM in 50 mM HOAc (pH 2.9)) that had been incubated at ≦4° C. for ≧48 h in 1-nm increments with a 3-s averaging time, 1-nm bandpass, and 0.1-cm pathlength. Samples for thermal stability experiments were generated by incubating peptide solutions (200 μM) at 4° C. for ≧48 h. The solutions were then heated from 4° C. to 97° C. (for samples in 50 mM HOAc (aq) (pH 2.9)) or to 106° C. (for samples in 2:1 ethylene glycol/50 mM HOAc(aq)) at 3-° C. increments with a 5-min equilibration at each step. The ellipticity at 225 nm was monitored with a 5-s averaging time, 1-nm bandpass, and 0.1-cm pathlength. Values of Tm were determined by fitting the data to a two-state model. (See Becktel and Schellman Biopolymers 26:1859-1877 (1987)).

The conditions of data set [5]: value from Holmgen et al. Nature 392:666-667 (1998); cited from earlier work.
For data set [6] the following is noted: cited from earlier work; for ΔG: values from Nishi et al. (2005) (Kobayashi and coworkers); for ΔG / TΔS / ΔH: normalized to T°=71.9° C.; for TΔS / ΔH: values from Nishi et al. (2005).
For data set [7] the following is noted: Sakakibara et al. (1973); cited from earlier work.
Data set [8] is described as follows: Differential scanning calorimetry (DSC) of triple-helix unfolding. The data set is classed as physicochemical. The following applies: for Tm (DSC exotherm maxima): scan rate 15° C./h; for TΔS / ΔG / ΔH: DSC. The protocol:
DSC measurements were conducted on a VP-DSC instrument (MicroCal, LLC, Northampton, Mass.). For each peptide, an instrument baseline was established by filling both the sample and the reference cell with degassed 50 mM HOAc(aq) (pH 2.9) and scanning from 5-98° C. at 15° C./h until at least 3 consecutive overlaying scans were observed. The last of these scans was used as the baseline for each subsequent peptide scan.
Peptide solutions (˜0.5 mg/mL in 50 mM HOAc(aq)), incubated at 4° C. for ≧48 h, were degassed and loaded into the sample cell (without removing the reference solution) during the cool down from the final baseline scan (at ˜15° C.). Samples were scanned from 5-98° C. at 15° C./h; the first scan of each sample was used in the analysis. […] Nevertheless, a second run with a fresh sample (incubated at 4° C. for ≧48 h) gave a trace that overlaid with the initial scan for both peptides.
After DSC measurements, peptide concentrations were determined by quantitative amino acid analysis (Scientific Research Consortium, Inc., St. Paul, Minn.). Peptide concentrations of 231 μM for (ProHypGly)10 and 129 μM for (ProMopGly)10 were calculated from the average of Gly and Pro content.
Data processing was done using the MicroCal software in the Origin 7 program (OriginLab Corp., Northampton, Mass.). For each sample, the appropriate reference scan was subtracted from the sample scan and the data were normalized to the monomer concentrations (determined above).
Values of ΔH (per mole of monomer) were obtained by direct integration of the DSC exotherms. Using ΔH and the exotherm maxima as the Tm (64.3° C. for (ProHypGly)10 and 73.8° C. for (ProMopGly)10), TΔS (at Tm) was calculated with the equation: Tm=ΔH/(ΔS+R·1n(0.75c^2)), where c is the concentration of monomeric peptide. (See Engel and Bäichinger P. Top. Curr. Chem. 247:7-33 (2005)). Values of ΔG were then calculated with the equation: ΔG=ΔH−TΔS. […] (See Nishi et. al. (2005)). The data of Kobayashi and coworkers were normalized to T°=71.9° C. (which is the T° for (ProProGly)10, i.e. where ΔG=0). Because our thermodynamic data for (ProMopGly)10 were determined at nearly the same temperature (73.8° C.), comparisons of the three peptides are meaningful.

The conditions of data set [9]: compared with (ProProGly)10 chains; Chopra and Ananthanarayanan (1982); cited from earlier work.
Where [10] appears, read: values from Bretscher et al. (2001).
[11] abbreviates: mean values from two molecules in ref 18.
The mark [12] stands for this setting: mean values for Hyp in 13 (Bella et al. 1994; Miles and Burjanadze 2001).

With `COC(=O)[C@@H]1C[C@@H](F)CN1C(C)=O` [Ac-Flp-OMe], in data set [1] (setting [10]), the Kt/c was 6.7. Besides, in data set [2] (setting [11]), the φ is recorded as −55.0 °, the ψ is reported as 140.5 ° and the ω is reported as −178.9 °.

Regarding `COC(=O)[C@@H]1C[C@@H](O)CN1C(C)=O` [Ac-Hyp-OMe], the Kt/c in data set [1] (setting [10]) is 6.1. In [2] (setting [11]), the φ is −57.0 °, the ψ is on record as 150.8 ° and the ω is reported as −178.8 °.

In data set [3], `COC(=O)[C@@H]1C[C@@H](OC)CN1C(C)=O` [Ac-Mop-OMe, N-(2-^13CH3-Acetyl)-(2S,4R)-4-methoxyproline methyl ester] came in with a φ of −58.1 ± 0.1 °, a ψ of 147.7 ± 0.1 ° and a ω of −179.7 ± 0.1 °. Further, in data set [3] (n→π* interaction), the “Oi-1...C′i=Oi angle” value is 94.6 ° and the “Oi-1...C′i=Oi distance” value was 2.84 Å.

As for (ProEopGly)10, the “triple-helix stability compared with Hyp (or Mop)” value in data set [4] (in water, no value or method printed) was “less stable”.

As for (ProFlpGly)10 [Peptide 3], the “Tm, water” value in data set [5] is listed as 91^d ° C. In data set [6], the ΔG is −3.3^c kcal/mol, the TΔS is listed as −17.2^c kcal/mol and the ΔH is reported as −20.5^c kcal/mol.

For the compound (ProHypGly)10 [Peptide 1], in data set [4], the “Tm, water” value was 62.0 °C and the “Tm, EG(aq)” value is 77.1 °C. In addition, the “melting temperature of a triple helix” value in data set [7] is 58 °C. In [8] (50 mM HOAc), the “Tm (DSC exotherm maxima)” value was determined as 64.3 °C. In [8] (at 64.3° C.), this compound registered a TΔS of -27.3 kcal/mol, a ΔG of -2.2 kcal/mol and a ΔH of -29.5 kcal/mol. In addition, the Kt/c result in data set [1] (Hyp in 13 (triple helix)) was “∞”. In data set [6], the ΔG is on record as −2.0^c kcal/mol, the TΔS is on record as −33.2^c kcal/mol and the ΔH was −35.2^c kcal/mol. In addition, the ΔG in data set [6] (listed as (ProHypGly)10) is -2.0 kcal/mol. Also, the “rate at which chains fold into a triple helix” value in data set [9] is listed as “substantially greater”. In addition, in [2] (setting [12]), the φ is −59.6 °, the ψ is listed as 149.8 ° and the ω is 178.5 °.

With (ProMopGly)10 [Peptide 2], in data set [4] (aqueous ethylene glycol), the “stability of triple helix compared with triple helical peptide 1” value is “more stable”. Besides, in data set [4], the “Tm, water” value amounted to 70.1 °C and the “Tm, EG(aq)” value came to 89.1 °C. In data set [4] (in water (50 mM HOAc)), the “conformational stability of triple helices compared with those of 1” value is on record as “substantially more conformational stability”. For the same compound, the “Tm (DSC exotherm maxima)” value in [8] (50 mM HOAc) was 73.8 °C. Moreover, in data set [8] (at Tm 73.8° C., calculated from ΔH and Tm), the TΔS is -25.2 kcal/mol. In addition, the ΔH in [8] (per mole of monomer, 50 mM HOAc, at 73.8° C.) is -27.9 kcal/mol. The same compound displayed a ΔG in [8] (ΔG=ΔH−TΔS, at 73.8° C.) of -2.7 kcal/mol.

On to (ProProGly)10, for which, in [7], the “melting temperature of a triple helix” value is 24 °C. Moreover, the “T° (where ΔG=0)” value in [6] (data of Kobayashi and coworkers (Nishi et al. 2005)) is 71.9 °C.
